Test results from the supplement of paper PMC10307832.

Experiments:
Assay in all cases: relative viability (nuclei count vs DMSO), 5 days (fraction); higher = more cells survive
A549 = system: A549
Procedure, shortened: (§1)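 Values are medians from duplicate plates. Each reflects relative viability, defined as the nuclei count of treated wells over that of vehicle wells. Lung cancer cell lines in 1536-well plates were pin-tool dosed one day after seeding with one drug alone or with a fixed anchor-drug dose plus five library-drug doses (not always all listed) in √10 steps, then fixed, stained and imaged at 4× after 5 days.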

IA-LM = system: IA-LM
Procedure, shortened: as §1

Calu-6 = system: Calu-6
Procedure, shortened: as §1

LK-2 = system: LK-2
Procedure, shortened: as §1

NCI-H1703 = system: NCI-H1703
Procedure, shortened: as §1

NCI-H1299 = system: NCI-H1299
Procedure, shortened: as §1

CAL-12T = system: CAL-12T
Procedure, shortened: as §1

NCI-H1623 = system: NCI-H1623
Procedure, shortened: as §1

EBC-1 = system: EBC-1
Procedure, shortened: as §1

NCI-H1650 = system: NCI-H1650
Procedure, shortened: as §1

Work on `NC(=O)Nc1cc(-c2cccc(F)c2)sc1C(=O)N[C@H]1CCCNC1` [AZD7762] + COc1cc2c(Oc3ccc(NC(=O)C4(C(=O)Nc5ccc(F)cc5)CC4)cc3F)ccnc2cc1OCCCN1CCOCC1 [Foretinib] (partner 0.25 µM) yielded a relative viability (A549; first compound 0.01 µM) of 1.02, a relative viability (A549; first compound 0.03162 µM) of 0.928 and a relative viability (A549; first compound 0.1 µM) of 0.942. The relative viability (A549; first compound 0.3162 µM) was 0.837, the relative viability (A549; first compound 1 µM) was 0.259 and the relative viability (IA-LM; first compound 0.01 µM) was 1.44. The relative viability (IA-LM; first compound 0.03162 µM) was 1.29, the relative viability (IA-LM; first compound 0.1 µM) was 1.48 and the relative viability (IA-LM; first compound 0.3162 µM) was 1.29. It also gave a relative viability (IA-LM; first compound 1 µM) of 0.59, a relative viability (Calu-6; first compound 0.01 µM) of 0.805 and a relative viability (Calu-6; first compound 0.03162 µM) of 0.83. It also gave a relative viability (Calu-6; first compound 0.1 µM) of 0.831, a relative viability (Calu-6; first compound 0.3162 µM) of 0.264 and a relative viability (Calu-6; first compound 1 µM) of 0.0933. It also gave a relative viability (LK-2; first compound 0.01 µM) of 1.38, a relative viability (LK-2; first compound 0.03162 µM) of 1.34 and a relative viability (LK-2; first compound 0.1 µM) of 1.11. For the same molecule, the relative viability (LK-2; first compound 0.3162 µM) was 0.864, the relative viability (LK-2; first compound 1 µM) was 0.722 and the relative viability (NCI-H1703; first compound 0.01 µM) was 0.398. For the same molecule, the relative viability (NCI-H1703; first compound 0.03162 µM) was 0.34, the relative viability (NCI-H1703; first compound 0.1 µM) was 0.348 and the relative viability (NCI-H1703; first compound 0.3162 µM) was 0.292. The relative viability (NCI-H1703; first compound 1 µM) was 0.174, the relative viability (NCI-H1299; first compound 0.01 µM) was 1.09 and the relative viability (NCI-H1299; first compound 0.03162 µM) was 1.15. For the same molecule, the relative viability (NCI-H1299; first compound 0.1 µM) was 1.09, the relative viability (NCI-H1299; first compound 0.3162 µM) was 1.07 and the relative viability (NCI-H1299; first compound 1 µM) was 0.622. For the same molecule, the relative viability (CAL-12T; first compound 0.01 µM) was 1.34, the relative viability (CAL-12T; first compound 0.03162 µM) was 1.01 and the relative viability (CAL-12T; first compound 0.1 µM) was 1.13. It also gave a relative viability (CAL-12T; first compound 0.3162 µM) of 0.874, a relative viability (CAL-12T; first compound 1 µM) of 0.217 and a relative viability (NCI-H1623; first compound 0.01 µM) of 0.874. It also gave a relative viability (NCI-H1623; first compound 0.03162 µM) of 0.821, a relative viability (NCI-H1623; first compound 0.1 µM) of 1 and a relative viability (NCI-H1623; first compound 0.3162 µM) of 0.96. For the same molecule, the relative viability (NCI-H1623; first compound 1 µM) was 0.664, the relative viability (EBC-1; first compound 0.01 µM) was 0.101 and the relative viability (EBC-1; first compound 0.03162 µM) was 0.0952. The relative viability (EBC-1; first compound 0.1 µM) was 0.105, the relative viability (EBC-1; first compound 0.3162 µM) was 0.119 and the relative viability (EBC-1; first compound 1 µM) was 0.116. It also gave a relative viability (NCI-H1650; first compound 0.01 µM) of 1.25, a relative viability (NCI-H1650; first compound 0.03162 µM) of 0.931 and a relative viability (NCI-H1650; first compound 0.1 µM) of 1.14. The relative viability (NCI-H1650; first compound 0.3162 µM) was 0.804 and the relative viability (NCI-H1650; first compound 1 µM) was 0.24.
In the case of `CC1(C)CCC(c2ccc(Cl)cc2)=C(CN2CCN(c3ccc(C(=O)NS(=O)(=O)c4ccc(N[C@H](CCN5CCOCC5)CSc5ccccc5)c(S(=O)(=O)C(F)(F)F)c4)cc3)CC2)C1` [Navitoclax] + COc1cc2c(Oc3ccc(NC(=O)C4(C(=O)Nc5ccc(F)cc5)CC4)cc3F)ccnc2cc1OCCCN1CCOCC1 [Foretinib] (partner 0.25 µM), the relative viability (A549; first compound 0.005 µM) is reported as 0.887, the relative viability (A549; first compound 0.01581 µM) is reported as 1.03 and the relative viability (A549; first compound 0.05 µM) is reported as 0.994. For the same molecule, the relative viability (A549; first compound 0.1581 µM) was 1.02, the relative viability (A549; first compound 0.5 µM) was 0.916 and the relative viability (IA-LM; first compound 0.005 µM) was 1.18. For the same molecule, the relative viability (IA-LM; first compound 0.01581 µM) was 1.2, the relative viability (IA-LM; first compound 0.05 µM) was 1.36 and the relative viability (IA-LM; first compound 0.1581 µM) was 1.27. The relative viability (IA-LM; first compound 0.5 µM) was 1.18, the relative viability (Calu-6; first compound 0.005 µM) was 0.852 and the relative viability (Calu-6; first compound 0.01581 µM) was 0.921. The relative viability (Calu-6; first compound 0.05 µM) was 0.937, the relative viability (Calu-6; first compound 0.1581 µM) was 0.916 and the relative viability (Calu-6; first compound 0.5 µM) was 0.894. The relative viability (LK-2; first compound 0.005 µM) was 1.22, the relative viability (LK-2; first compound 0.01581 µM) was 1.15 and the relative viability (LK-2; first compound 0.05 µM) was 0.645. It also gave a relative viability (LK-2; first compound 0.1581 µM) of 1.24, a relative viability (LK-2; first compound 0.5 µM) of 1.08 and a relative viability (NCI-H1703; first compound 0.005 µM) of 0.472. The relative viability (NCI-H1703; first compound 0.01581 µM) was 0.369, the relative viability (NCI-H1703; first compound 0.05 µM) was 0.416 and the relative viability (NCI-H1703; first compound 0.1581 µM) was 0.337. The relative viability (NCI-H1703; first compound 0.5 µM) was 0.353, the relative viability (NCI-H1299; first compound 0.005 µM) was 1.1 and the relative viability (NCI-H1299; first compound 0.01581 µM) was 1.1. For the same molecule, the relative viability (NCI-H1299; first compound 0.05 µM) was 1.12, the relative viability (NCI-H1299; first compound 0.1581 µM) was 1.11 and the relative viability (NCI-H1299; first compound 0.5 µM) was 1.11. For the same molecule, the relative viability (CAL-12T; first compound 0.005 µM) was 1.08, the relative viability (CAL-12T; first compound 0.01581 µM) was 1.17 and the relative viability (CAL-12T; first compound 0.05 µM) was 1.16. The relative viability (CAL-12T; first compound 0.1581 µM) was 1.11, the relative viability (CAL-12T; first compound 0.5 µM) was 1.11 and the relative viability (NCI-H1623; first compound 0.005 µM) was 0.863. The relative viability (NCI-H1623; first compound 0.01581 µM) was 0.981, the relative viability (NCI-H1623; first compound 0.05 µM) was 0.781 and the relative viability (NCI-H1623; first compound 0.1581 µM) was 0.842. It also gave a relative viability (NCI-H1623; first compound 0.5 µM) of 0.811, a relative viability (EBC-1; first compound 0.005 µM) of 0.0939 and a relative viability (EBC-1; first compound 0.01581 µM) of 0.118. It also gave a relative viability (EBC-1; first compound 0.05 µM) of 0.113, a relative viability (EBC-1; first compound 0.1581 µM) of 0.103 and a relative viability (EBC-1; first compound 0.5 µM) of 0.0895. For the same molecule, the relative viability (NCI-H1650; first compound 0.005 µM) was 1.08, the relative viability (NCI-H1650; first compound 0.01581 µM) was 1.48 and the relative viability (NCI-H1650; first compound 0.05 µM) was 1.12. The relative viability (NCI-H1650; first compound 0.1581 µM) was 1.28 and the relative viability (NCI-H1650; first compound 0.5 µM) was 0.953.
